# Source: BigSolDB 2.1
smiles,measurement,setting,value
CCS(=O)(=O)CCn1c([N+](=O)[O-])cnc1C,solubility (mole fraction),"in 2-butoxyethanol, 278.15 K",0.00191
same,solubility (mole fraction),"in 2-butoxyethanol, 283.15 K",0.00214
same,solubility (mole fraction),"in 2-butoxyethanol, 288.15 K",0.00276
same,solubility (mole fraction),"in 2-butoxyethanol, 293.15 K",0.00372
same,solubility (mole fraction),"in 2-butoxyethanol, 298.15 K",0.00446
same,solubility (mole fraction),"in 2-butoxyethanol, 303.15 K",0.0054
same,solubility (mole fraction),"in 2-butoxyethanol, 308.15 K",0.00687
same,solubility (mole fraction),"in 2-butoxyethanol, 313.15 K",0.00826
same,solubility (mole fraction),"in 2-butoxyethanol, 318.15 K",0.0106
same,solubility (mole fraction),"in 2-butoxyethanol, 323.15 K",0.0133
same,solubility (mole fraction),"in 2-ethoxyethanol, 278.15 K",0.00356
same,solubility (mole fraction),"in 2-ethoxyethanol, 283.15 K",0.00437
same,solubility (mole fraction),"in 2-ethoxyethanol, 288.15 K",0.00526
same,solubility (mole fraction),"in 2-ethoxyethanol, 293.15 K",0.00647
same,solubility (mole fraction),"in 2-ethoxyethanol, 298.15 K",0.00792
same,solubility (mole fraction),"in 2-ethoxyethanol, 303.15 K",0.00957
same,solubility (mole fraction),"in 2-ethoxyethanol, 308.15 K",0.012
same,solubility (mole fraction),"in 2-ethoxyethanol, 313.15 K",0.0147
same,solubility (mole fraction),"in 2-ethoxyethanol, 318.15 K",0.0181
same,solubility (mole fraction),"in 2-ethoxyethanol, 323.15 K",0.0222
same,solubility (mole fraction),"in 2-methoxyethanol, 278.15 K",0.00839
same,solubility (mole fraction),"in 2-methoxyethanol, 283.15 K",0.0102
same,solubility (mole fraction),"in 2-methoxyethanol, 288.15 K",0.0118
same,solubility (mole fraction),"in 2-methoxyethanol, 293.15 K",0.0145
same,solubility (mole fraction),"in 2-methoxyethanol, 298.15 K",0.0175
same,solubility (mole fraction),"in 2-methoxyethanol, 303.15 K",0.0209
same,solubility (mole fraction),"in 2-methoxyethanol, 308.15 K",0.0257
same,solubility (mole fraction),"in 2-methoxyethanol, 313.15 K",0.0314
same,solubility (mole fraction),"in 2-methoxyethanol, 318.15 K",0.0377
same,solubility (mole fraction),"in 2-methoxyethanol, 323.15 K",0.0462
same,solubility (mole fraction),"in 2-propoxyethanol, 278.15 K",0.0022
same,solubility (mole fraction),"in 2-propoxyethanol, 283.15 K",0.00261
same,solubility (mole fraction),"in 2-propoxyethanol, 288.15 K",0.00329
same,solubility (mole fraction),"in 2-propoxyethanol, 293.15 K",0.00429
same,solubility (mole fraction),"in 2-propoxyethanol, 298.15 K",0.00513
same,solubility (mole fraction),"in 2-propoxyethanol, 303.15 K",0.00622
same,solubility (mole fraction),"in 2-propoxyethanol, 308.15 K",0.00778
same,solubility (mole fraction),"in 2-propoxyethanol, 313.15 K",0.00967
same,solubility (mole fraction),"in 2-propoxyethanol, 318.15 K",0.0123
same,solubility (mole fraction),"in 2-propoxyethanol, 323.15 K",0.0154
same,solubility (mole fraction),"in DMAc, 278.15 K",0.0509
same,solubility (mole fraction),"in DMAc, 283.15 K",0.0571
same,solubility (mole fraction),"in DMAc, 288.15 K",0.0655
same,solubility (mole fraction),"in DMAc, 293.15 K",0.0745
same,solubility (mole fraction),"in DMAc, 298.15 K",0.083
same,solubility (mole fraction),"in DMAc, 303.15 K",0.0944
same,solubility (mole fraction),"in DMAc, 308.15 K",0.107
same,solubility (mole fraction),"in DMAc, 313.15 K",0.121
same,solubility (mole fraction),"in DMAc, 318.15 K",0.136
same,solubility (mole fraction),"in DMAc, 323.15 K",0.154
same,solubility (mole fraction),"in DMF, 278.15 K",0.0454
same,solubility (mole fraction),"in DMF, 283.15 K",0.0521
same,solubility (mole fraction),"in DMF, 288.15 K",0.06
same,solubility (mole fraction),"in DMF, 293.15 K",0.0691
same,solubility (mole fraction),"in DMF, 298.15 K",0.0787
same,solubility (mole fraction),"in DMF, 303.15 K",0.0905
same,solubility (mole fraction),"in DMF, 308.15 K",0.104
same,solubility (mole fraction),"in DMF, 313.15 K",0.119
same,solubility (mole fraction),"in DMF, 318.15 K",0.134
same,solubility (mole fraction),"in DMF, 323.15 K",0.152
same,solubility (mole fraction),"in NMP, 278.15 K",0.0704
same,solubility (mole fraction),"in NMP, 283.15 K",0.0804
same,solubility (mole fraction),"in NMP, 288.15 K",0.089
same,solubility (mole fraction),"in NMP, 293.15 K",0.0987
same,solubility (mole fraction),"in NMP, 298.15 K",0.109
same,solubility (mole fraction),"in NMP, 303.15 K",0.122
same,solubility (mole fraction),"in NMP, 308.15 K",0.137
same,solubility (mole fraction),"in NMP, 313.15 K",0.15
same,solubility (mole fraction),"in NMP, 318.15 K",0.167
same,solubility (mole fraction),"in NMP, 323.15 K",0.183
same,solubility (mole fraction),"in acetone, 278.15 K",0.00866
same,solubility (mole fraction),"in acetone, 283.15 K",0.011
same,solubility (mole fraction),"in acetone, 288.15 K",0.0133
same,solubility (mole fraction),"in acetone, 293.15 K",0.0161
same,solubility (mole fraction),"in acetone, 298.15 K",0.0195
same,solubility (mole fraction),"in acetone, 303.15 K",0.0233
same,solubility (mole fraction),"in acetone, 308.15 K",0.028
same,solubility (mole fraction),"in acetone, 313.15 K",0.0348
same,solubility (mole fraction),"in acetone, 318.15 K",0.0426
same,solubility (mole fraction),"in acetone, 323.15 K",0.0517
same,solubility (mole fraction),"in ethanol, 278.15 K",0.000263
same,solubility (mole fraction),"in ethanol, 283.15 K",0.000375
same,solubility (mole fraction),"in ethanol, 288.15 K",0.000479
same,solubility (mole fraction),"in ethanol, 293.15 K",0.000665
same,solubility (mole fraction),"in ethanol, 298.15 K",0.000836
same,solubility (mole fraction),"in ethanol, 303.15 K",0.0012
same,solubility (mole fraction),"in ethanol, 308.15 K",0.0016
same,solubility (mole fraction),"in ethanol, 313.15 K",0.00207
same,solubility (mole fraction),"in ethanol, 318.15 K",0.00277
same,solubility (mole fraction),"in ethanol, 323.15 K",0.00377
same,solubility (mole fraction),"in ethyl acetate, 278.15 K",0.00334
same,solubility (mole fraction),"in ethyl acetate, 283.15 K",0.00412
same,solubility (mole fraction),"in ethyl acetate, 288.15 K",0.00488
same,solubility (mole fraction),"in ethyl acetate, 293.15 K",0.0057
same,solubility (mole fraction),"in ethyl acetate, 298.15 K",0.00689
same,solubility (mole fraction),"in ethyl acetate, 303.15 K",0.00825
same,solubility (mole fraction),"in ethyl acetate, 308.15 K",0.0099
same,solubility (mole fraction),"in ethyl acetate, 313.15 K",0.0118
same,solubility (mole fraction),"in ethyl acetate, 318.15 K",0.0141
same,solubility (mole fraction),"in ethyl acetate, 323.15 K",0.0168
same,solubility (mole fraction),"in methanol, 278.15 K",0.000928
same,solubility (mole fraction),"in methanol, 283.15 K",0.00119
same,solubility (mole fraction),"in methanol, 288.15 K",0.00157
same,solubility (mole fraction),"in methanol, 293.15 K",0.00197
same,solubility (mole fraction),"in methanol, 298.15 K",0.00263
same,solubility (mole fraction),"in methanol, 303.15 K",0.00345
same,solubility (mole fraction),"in methanol, 308.15 K",0.00448
same,solubility (mole fraction),"in methanol, 313.15 K",0.00597
same,solubility (mole fraction),"in methanol, 318.15 K",0.00785
same,solubility (mole fraction),"in methanol, 323.15 K",0.0104
same,solubility (mole fraction),"in methyl acetate, 278.15 K",0.00557
same,solubility (mole fraction),"in methyl acetate, 283.15 K",0.00673
same,solubility (mole fraction),"in methyl acetate, 288.15 K",0.00791
same,solubility (mole fraction),"in methyl acetate, 293.15 K",0.0095
same,solubility (mole fraction),"in methyl acetate, 298.15 K",0.0114
same,solubility (mole fraction),"in methyl acetate, 303.15 K",0.0134
same,solubility (mole fraction),"in methyl acetate, 308.15 K",0.0159
same,solubility (mole fraction),"in methyl acetate, 313.15 K",0.0188
same,solubility (mole fraction),"in methyl acetate, 318.15 K",0.0223
same,solubility (mole fraction),"in methyl acetate, 323.15 K",0.0257
same,solubility (mole fraction),"in n-butyl acetate, 278.15 K",0.00199
same,solubility (mole fraction),"in n-butyl acetate, 283.15 K",0.00235
same,solubility (mole fraction),"in n-butyl acetate, 288.15 K",0.0029
same,solubility (mole fraction),"in n-butyl acetate, 293.15 K",0.00358
same,solubility (mole fraction),"in n-butyl acetate, 298.15 K",0.00421
same,solubility (mole fraction),"in n-butyl acetate, 303.15 K",0.00513
same,solubility (mole fraction),"in n-butyl acetate, 308.15 K",0.00617
same,solubility (mole fraction),"in n-butyl acetate, 313.15 K",0.0074
same,solubility (mole fraction),"in n-butyl acetate, 318.15 K",0.00898
same,solubility (mole fraction),"in n-butyl acetate, 323.15 K",0.0107
same,solubility (mole fraction),"in n-propyl acetate, 278.15 K",0.00255
same,solubility (mole fraction),"in n-propyl acetate, 283.15 K",0.00314
same,solubility (mole fraction),"in n-propyl acetate, 288.15 K",0.00377
same,solubility (mole fraction),"in n-propyl acetate, 293.15 K",0.00456
same,solubility (mole fraction),"in n-propyl acetate, 298.15 K",0.00543
same,solubility (mole fraction),"in n-propyl acetate, 303.15 K",0.00659
same,solubility (mole fraction),"in n-propyl acetate, 308.15 K",0.00783
same,solubility (mole fraction),"in n-propyl acetate, 313.15 K",0.00948
same,solubility (mole fraction),"in n-propyl acetate, 318.15 K",0.0114
same,solubility (mole fraction),"in n-propyl acetate, 323.15 K",0.0135
